Measured values reported in patent publication US10550105B2 (Ribon Therapeutics Inc., priority 2018, dated 2020).

target: PARP7 (Homo sapiens (Human), UniProt Q7Z3E1); assay: Enzymatic assay for inhibition of PARP7: TR-FRET displacement of biotinylated Probe A from the TIPARP active site; format: binding; conditions: Table A-1
Outline: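 Compounds were tested as dose-response series, and reactions were incubated a further 30 min at 25° C. TR-FRET was read at 320 nm excitation with 615 and 665 nm emission after a 90 μs delay. The 665/615 ratio gave the TIPARP–Probe A complex, and % inhibition was fitted against concentration.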

PARP7, sequence (Q7Z3E1 whole entry): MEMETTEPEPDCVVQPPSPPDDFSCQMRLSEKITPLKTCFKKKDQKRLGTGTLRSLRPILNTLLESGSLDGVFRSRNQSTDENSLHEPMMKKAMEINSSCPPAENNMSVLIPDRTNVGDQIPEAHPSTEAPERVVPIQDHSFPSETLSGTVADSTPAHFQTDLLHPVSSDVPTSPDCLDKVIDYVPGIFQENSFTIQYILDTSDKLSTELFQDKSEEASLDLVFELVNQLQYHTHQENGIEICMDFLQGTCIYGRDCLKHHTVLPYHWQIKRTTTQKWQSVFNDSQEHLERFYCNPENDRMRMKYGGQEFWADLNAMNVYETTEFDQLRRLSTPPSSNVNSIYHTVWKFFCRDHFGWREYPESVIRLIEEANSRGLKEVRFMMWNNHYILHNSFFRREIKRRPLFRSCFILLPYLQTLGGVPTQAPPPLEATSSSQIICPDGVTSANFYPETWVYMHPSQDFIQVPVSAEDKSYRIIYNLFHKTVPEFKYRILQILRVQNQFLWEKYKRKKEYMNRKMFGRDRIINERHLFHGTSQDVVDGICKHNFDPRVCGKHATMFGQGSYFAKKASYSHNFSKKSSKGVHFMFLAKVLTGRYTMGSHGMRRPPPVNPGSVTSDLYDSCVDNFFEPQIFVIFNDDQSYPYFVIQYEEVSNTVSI

SMILES	IC50
C[C@@H](COC[C@@H](N)CC(=O)N1CCN(c2ncc(C(F)(F)F)cn2)CC1)Nc1cn[nH]c(=O)c1C(F)(F)F (single isomer, unassigned) [Example 617 Isomer B]	< 0.1 µM
C[C@@H](COCCC(=O)N1CC[C@H]2[C@@H]1CCN2c1ncc(C(F)(F)F)cn1)Nc1cn[nH]c(=O)c1C(F)(F)F [Example 689, 5-(((S)-1-(3-Oxo-3-((3aS,6aS)-4-(5-(trifluoromethyl)pyrimidin-2-yl)hexahydropyrrolo[3,2-b]pyrrol-1(2H)-yl)propoxy)propan-2-yl)amino)-4-(trifluoromethyl)pyridazin-3(2H)-one]	0.1 to 1 µM
CCc1c(N2Cc3cccc(OC4CCNCC4)c3C2)cn[nH]c1=O [Example 272, 4-Ethyl-5-(4-(piperidin-4-yloxy)isoindolin-2-yl)pyridazin-3(2H)-one]	≥ 1 µM
CC(=O)N1CCC(Oc2cccc3c2CN(c2cn[nH]c(=O)c2C(F)(F)F)C3)CC1 [Example 225, 5-(4-((1-Acetylpiperidin-4-yl)oxy)isoindolin-2-yl)-4-(trifluoromethyl)pyridazin-3(2H)-one]	< 0.1 µM
COc1cccc2c1CN(c1cn[nH]c(=O)c1C(F)(F)F)C2C (stereo not drawn) [Example 308, 5-(4-Methoxy-1-methylisoindolin-2-yl)-4-(trifluoromethyl)pyridazin-3(2H)-one]	0.1 to 1 µM
N#Cc1ccc(N2CCN(C(=O)c3cccc(OC[C@@H]4C[C@H](O)CN4c4cn[nH]c(=O)c4C(F)(F)F)c3)CC2)nc1 [Example 51]	< 0.1 µM
C#CCOC[C@@H]1CCCN1c1cn[nH]c(=O)c1C(F)(F)F [Example 472, (S)-5-(2-((prop-2-yn-1-yloxy)methyl)pyrrolidin-1-yl)-4-(trifluoromethyl)pyridazin-3(2H)-one]	≥ 1 µM
CC(C)c1c(N2Cc3ccc(O[C@@H]4CCCNC4)cc3C2)cn[nH]c1=O [Example 292, (R)-4-Isopropyl-5-(5-(piperidin-3-yloxy)isoindolin-2-yl)pyridazin-3(2H)-one]	≥ 1 µM
C[C@@H](COCCC(=O)N1CCN(c2ccc(C(F)(F)F)cn2)CC1)Nc1cn[nH]c(=O)c1C(F)(F)F [Example 564, 5-[[(2S)-1-(3-Oxo-3-[4-[5-(trifluoromethyl)pyridin-2-yl]piperazin-1-yl]propoxy)propan-2-yl]amino]-4-(trifluoromethyl)-2,3-dihydropyridazin-3-one]	< 0.1 µM
Cc1cnc(N2CCN(C(=O)CCOC[C@H](C)Nc3cn[nH]c(=O)c3C(F)(F)F)CC2)nc1 [Example 670, (S)-5-((1-(3-(4-(5-Methylpyrimidin-2-yl)piperazin-1-yl)-3-oxopropoxy)propan-2-yl)amino)-4-(trifluoromethyl)pyridazin-3(2H)-one]	< 0.1 µM
N#Cc1ccc(N2CCN(C(=O)c3ccnc(OCC4c5ccccc5CN4c4cn[nH]c(=O)c4C(F)(F)F)c3)CC2)nc1 (stereo not drawn) [Example 381, 6-(4-(2-((2-(6-Oxo-5-(trifluoromethyl)-1,6-dihydropyridazin-4-yl)isoindolin-1-yl)methoxy)isonicotinoyl)piperazin-1-yl)nicotinonitrile]	< 0.1 µM
CN1CCC(Oc2ccc3c(c2)CN(c2cn[nH]c(=O)c2C(F)(F)F)C3)CC1 [Example 263, 5-(5-((1-Methylpiperidin-4-yl)oxy)isoindolin-2-yl)-4-(trifluoromethyl)pyridazin-3(2H)-one]	< 0.1 µM
N#Cc1ccc(N2CCN(C(=O)c3cccc(OC[C@@H]4C[C@@H](O)CN4c4cn[nH]c(=O)c4C(F)(F)F)c3)CC2)nc1 [Example 52]	< 0.1 µM
C[C@@H](COCCC(=O)N1CCN(c2ccc(C#N)cn2)CC1)Nc1cn[nH]c(=O)c1Cl [Example 597, 6-(4-[3-[(2S)-2-[(5-Chloro-6-oxo-1,6-dihydropyridazin-4-yl)amino]propoxy]propanoyl]piperazin-1-yl)pyridine-3-carbonitrile]	< 0.1 µM
CC(=O)N1CCN(C(=O)c2cccc(OC[C@H]3c4ccccc4CN3c3cn[nH]c(=O)c3C(F)(F)F)c2)CC1 [Example 406, (R)-5-(1-((3-(4-Acetylpiperazine-1-carbonyl)phenoxy)methyl)isoindolin-2-yl)-4-(trifluoromethyl)pyridazin-3(2H)-one]	≥ 1 µM
NCCOc1cnc2c(c1)CN(c1cn[nH]c(=O)c1C(F)(F)F)C2 [Example 334, 5-(3-(2-Aminoethoxy)-5,7-dihydro-6H-pyrrolo[3,4-b]pyridin-6-yl)-4-(trifluoromethyl)pyridazin-3(2H)-one]	0.1 to 1 µM
O=c1[nH]ncc(N2Cc3cc(F)c(OC4CCCNC4)cc3C2)c1C(F)(F)F (stereo not drawn) [Example 58, 5-[5-fluoro-6-(piperidin-3-yloxy)-2,3-dihydro-1H-isoindol-2-yl]-4-(trifluoromethyl)-2,3-dihydropyridazin-3-one]	< 0.1 µM
O=C(CCOCCNc1cn[nH]c(=O)c1C(F)(F)F)N1CCN(c2ncc(Cl)cn2)CC1 [Example 503, 5-[(2-[3-[4-(5-Chloropyrimidin-2-yl)piperazin-1-yl]-3-oxopropoxy]ethyl)amino]-4-(trifluoromethyl)-2,3-dihydropyridazin-3-one]	< 0.1 µM
C[C@@H](COCCC(=O)N1CCN(c2ccc(C#N)cn2)CC1)Nc1cn[nH]c(=O)c1C(F)(F)F [Example 513A, (S)-6-(4-(3-(2-(6-Oxo-5-(trifluoromethyl)-1,6-dihydropyridazin-4-ylamino)propoxy)propanoyl)piperazin-1-yl)nicotinonitrile]	< 0.1 µM
O=c1[nH]ncc(N2Cc3cc(F)c(OCC4CCNCC4)cc3C2)c1C(F)(F)F [Example 20, 5-[5-fluoro-6-(piperidin-4-ylmethoxy)-2,3-dihydro-1H-isoindol-2-yl]-4-(trifluoromethyl)-2,3-dihydropyridazin-3-one]	< 0.1 µM
C[C@H](COCCC(=O)N1CCN(c2ncc(Cl)cn2)CC1)Oc1cn[nH]c(=O)c1C(F)(F)F [Example 543 Isomer D, (R)-5-(1-(3-(4-(5-chloropyrimidin-2-yl)piperazin-1-yl)-3-oxopropoxy)propan-2-yloxy)-4-(trifluoromethyl)pyridazin-3(2H)-one]	0.1 to 1 µM

Second part, the molecule after the results:

IC50	SMILES
0.1 to 1 µM	N#Cc1ccc(N2CCN(C(=O)c3cccc(OC[C@H]4c5ccccc5CN4c4cn[nH]c(=O)c4C(F)(F)F)c3)CC2)nc1 (single isomer, unassigned) [Example 18 Isomer A]
< 0.1 µM	N#Cc1ccc(N2CC3CCC2CN3C(=O)CCOC[C@@H]2CCCN2c2cn[nH]c(=O)c2C(F)(F)F)nc1 (stereo partly drawn) [Example 101, 6-[5-(3-[[(2S)-1-[6-oxo-5-(trifluoromethyl)-1,6-dihydropyridazin-4-yl]pyrrolidin-2-yl]methoxy]propanoyl)-2,5-diazabicyclo[2.2.2]octan-2-yl]pyridine-3-carbonitrile]
≥ 1 µM	N#Cc1ccc(N2CCN(C(=O)c3cccc(OC[C@@H]4C[C@@H](C#N)CN4c4cn[nH]c(=O)c4C(F)(F)F)c3)CC2)nc1 [Example 464, 6-(4-(3-(((2S,4R)-4-Cyano-1-(6-oxo-5-(trifluoromethyl)-1,6-dihydropyridazin-4-yl)pyrrolidin-2-yl)methoxy)benzoyl)piperazin-1-yl)nicotinonitrile]
< 0.1 µM	C[C@@H](COCCC(=O)N1CCN(c2ncc(C(F)F)cn2)CC1)Nc1cn[nH]c(=O)c1C(F)(F)F [Example 706, (S)-5-((1-(3-(4-(5-(Difluoromethyl)pyrimidin-2-yl)piperazin-1-yl)-3-oxopropoxy)propan-2-yl)amino)-4-(trifluoromethyl)pyridazin-3(2H)-one]
≥ 1 µM	N#Cc1ccc(N2CCN(C(=O)CCOC[C@H](Nc3cn[nH]c(=O)c3C(F)(F)F)c3ccccc3)CC2)nc1 [Example 514A, 6-(4-[3-[(2R)-2-[[6-Oxo-5-(trifluoromethyl)-1,6-dihydropyridazin-4-yl]amino]-2-phenylethoxy]propanoyl]piperazin-1-yl)pyridine-3-carbonitrile]
0.1 to 1 µM	O=c1[nH]ncc(N2Cc3c(F)ccc(OCCO)c3C2)c1C(F)(F)F [Example 283, 5-(4-Fluoro-7-(2-hydroxyethoxy)isoindolin-2-yl)-4-(trifluoromethyl)pyridazin-3(2H)-one]
< 0.1 µM	COc1cc(F)cc2c1CN(c1cn[nH]c(=O)c1C(F)(F)F)C2 [Example 274, 5-(6-Fluoro-4-methoxyisoindolin-2-yl)-4-(trifluoromethyl)pyridazin-3(2H)-one]
0.1 to 1 µM	N#Cc1ccc(N2CCN(C(=O)CCOC[C@H]3c4ccccc4CN3c3cn[nH]c(=O)c3Cl)CC2)nc1 [Example 414, (R)-6-(4-(3-((2-(5-Chloro-6-oxo-1,6-dihydropyridazin-4-yl)isoindolin-1-yl)methoxy)propanoyl)piperazin-1-yl)nicotinonitrile]
≥ 1 µM	CC(=O)N1CCC(Oc2cccc3c2CN(c2cn[nH]c(=O)c2Cl)C3)CC1 [Example 258, 5-(4-((1-Acetylpiperidin-4-yl)oxy)isoindolin-2-yl)-4-chloropyridazin-3(2H)-one]
< 0.1 µM	C[C@@H](COCCC(=O)N1CC=C(c2ncc(C(F)(F)F)cn2)CC1)Nc1cn[nH]c(=O)c1C(F)(F)F [Example 652, (S)-5-((1-(3-Oxo-3-(4-(5-(trifluoromethyl)pyrimidin-2-yl)-3,6-dihydropyridin-1(2H)-yl)propoxy)propan-2-yl)amino)-4-(trifluoromethyl)pyridazin-3(2H)-one]
< 0.1 µM	O=C(C[C@@H]1CC[C@H]([C@@H]2CCCN2c2cn[nH]c(=O)c2C(F)(F)F)O1)N1CCN(c2ncc(C(F)(F)F)cn2)CC1 [Example 149C, 5-[(2S)-2-[(2R,5S)-5-(2-oxo-2-[4-[5-(trifluoromethyl)pyrimidin-2-yl]piperazin-1-yl]ethyl)oxolan-2-yl]pyrrolidin-1-yl]-4-(trifluoromethyl)-2,3-dihydropyridazin-3-one]
< 0.1 µM	N#Cc1ccc(N2CCN(C(=O)COCCOc3cccc4c3CN(c3cn[nH]c(=O)c3C(F)(F)F)C4)CC2)nc1 [Example 490, 6-(4-(2-(2-((2-(6-Oxo-5-(trifluoromethyl)-1,6-dihydropyridazin-4-yl)isoindolin-4-yl)oxy)ethoxy)acetyl)piperazin-1-yl)nicotinonitrile]
